Source: patent publication US20030216448A1, “Treatment of neuropathic pain” (priority 2002, published 2003)
Structures can show the parent of a compound that is named as a salt.

Legend:
[1] = system: rat spinal nerve ligation model of neuropathic pain; experiment: mechanical allodynia (von Frey) in the spinal nerve ligation model of neuropathic pain; assay type: in vivo
From the text: (§1) Under halothane anesthesia, the L5 and L6 spinal nerves were tightly ligated in the manner described previously by Chung et al. (Kim S. H., Chung J. M., An experimental model for peripheral neuropathy produced by segmental spinal nerve ligation in the rat. Pain 1992; 50:355-363.). Briefly, an incision was made on the dorsal portion of the hip, and the muscle was blunt dissected to reveal the spinal processes. The L6 transverse process was removed, and the left L5 and L6 spinal nerves were tightly ligated with 5.0 braided silk suture. The wound was cleaned, the membrane sewn with 4.0 dissolvable Vicryl suture and the skin closed with wound clips.
Implantation of the DRG catheters was performed immediately following nerve ligation, with animals maintained under halothane for the entire procedure (35-40 minutes). Catheters were constructed of PE 20 with small pieces of tygon tubing cemented along the catheter to allow for suture anchoring points during surgery. The left L5 DRG was exposed by removing the posterior articular process of the L5 vertebra. Gelfoam was inserted into the cavity to prevent the catheter from damaging the ganglion. The catheter was sutured to the muscle and fascia, then run subcutaneously to exteriorize between the shoulder blades. Saline was infused into the catheter, and it was heat sealed.
The implantation of i.c.v. cannulae were conducted under sodium pentobarbital (50 mg/kg, i.p. Nembutal) anesthesia with nerve ligation occurring just after the implantation; animals were maintained under anesthesia for the entire procedure (40-45 minutes). Animals were implanted with a 22 gauge guide cannulae (Plastics One, Roanoke Va.) cut to 6 mm. The stereotaxic coordinates from bregma were 1.0 mm posterior, 1.6 mm lateral, and 4.5 ventral (Paxinos G. and Watson C., The rat brain in stereotaxic coordinates. New York: Academic Press, 1997). Three skull screws were attached for stability, and the implant was covered with cranioplastic acrylic.
For i.c.v. (intracerebroventricular) infusion, chlorisondamine (10 μg) was dissolved in 5 μl phosphate buffered saline and infused by syringe pump at a rate of 5 μl/min. The infusion was performed 24 hours prior to testing in order to reduce stress to the animals immediately prior to behavioral testing.
For all other routes of administration including intraperotineal (i.p.), intradermal (i.d.) or onto the DRG, chlorisondamine was dissolved in saline. The final volumes for i.p. injections were 1 ml/kg, for i.d. were 50 μl and for DRG injections were 10 μl. All injections were made by hand held syringe.
For the assessment of neuropathic pain, mechanical allodynia in the affected paw of animals who had undergone spinal nerve ligation was evaluated using von Frey filaments. As described previously (Chaplan et al., Quantitative assessment of tactile allodynia in the rat paw. J Neurosci Meth, 1994; 53:55-62), two weeks following surgery, rats were acclimated to the testing box which was constructed of plexiglass with a wire mesh floor to allow access to the planter surface of the hind paws. Using the Dixons Up-Down method, a baseline level of allodynia was taken with allodynia defined as a withdrawal threshold ≦4 g. Test compounds were then administered and subsequent withdrawal thresholds determined.
For spinal nerve ligation experiments, the timing of antagonist administration depended upon the route of administration. With i.c.v. administration, chlorisondamine or its vehicle was given 24 hours prior to further manipulation. On the day of the experiment, a baseline allodynia score was determined and then A-85380 or its vehicle control was given and measures taken at 15, 30 and 60 minutes post agonist injection. Dose response curves for i.p., i.d. and DRG administration were also determined using this time line. […]

[2] = side effects observed after injection in spinal nerve ligated rats; assay type: in vivo, rat
[3] = system: formalin model of persistent pain; experiment: formalin model of persistent pain, phase two; assay type: in vivo, rat; conditions: A-85380 0.75 μmol/kg
Experimental: The formalin test was used as an assessment of persistent pain. The method, described previously (Bannon et al. 1998) is briefly as follows. Following acclimation to the test environment, 50 μl of a 5% formalin solution was injected subcutaneously into the dorsal surface of one of the rear paws. Only phase two, defined as the 20 minute period from 30 to 50 minutes post formalin injection, was scored for nocifensive behaviors including flinching, licking, and biting.
For formalin experiments, chlorisondamine or its vehicle was infused either 24 h or 40-50 minutes prior to further manipulation. A-85380 was then injected and, 5 minutes later, formalin was injected into the paw. Measures were taken between 30 and 50 minutes post formalin injection.
For experiments with repeated measures, i.e. acute thermal pain and mechanical allodynia, data were first analyzed using a two way repeated measures analysis of variance (ANOVA) with two independent factors. For experiments without repeated measures, i.e. formalin, data were first analyzed using a two way ANOVA with two independent factors. If there was a significant interaction of both factors or of both factors and time, subsequent post hoc one way ANOVAs were performed using each treatment combination as an independent group. The difference in paw withdrawal latencies between the affected and unaffected paw of neuropathic animals tested in acute thermal pain was assessed using a paired t-test. All post hoc significance was determined using Fishers LSD.

[4] = system: rat paw withdrawal model of acute thermal pain; experiment: rat paw withdrawal model of acute thermal pain, normal rats; assay type: in vivo; conditions: A-85380 0.75 μmol/kg
From the text: For the assessment of acute pain, a paw thermal stimulator was used to evaluate nociceptive responses to an acute thermal stimulus (Anesthesiology Research Laboratory, Department of Anesthesiology, University of California at San Diego, La Jolla, Calif.). The device and behavioral procedure have been described previously (Hargreaves et al., A new and sensitive method for measuring thermal nociception in cutaneous hyperalgesia, Pain 1988, 32:77-88; Dirig et al., Characterization of variables defining hind paw withdrawal latency evoked by radiant thermal stimuli, J. Neurosci. Meth. 1997; 76:183-191). […] The measured nociceptive response was the latency to withdraw the hind paw when heated by light from a focused projector lamp (current set at 4.8 A). […]
(§2) For acute thermal pain experiments, a baseline withdrawal threshold was determined, and then chlorisondamine or its vehicle was administered. […]
For experiments with repeated measures, i.e. acute thermal pain and mechanical allodynia, data were first analyzed using a two way repeated measures analysis of variance (ANOVA) with two independent factors. For experiments without repeated measures, i.e. formalin, data were first analyzed using a two way ANOVA with two independent factors. […] All post hoc significance was determined using Fishers LSD.

[5] = system: rat paw withdrawal model of acute thermal pain using neuropathic rats; experiment: rat paw withdrawal model of acute thermal pain using neuropathic rats; assay type: in vivo; conditions: antagonist 0.4 μmol/kg, i.p., A-85380 0.75 μmol/kg
From the text: as §1
For the assessment of acute pain, a paw thermal stimulator was used to evaluate nociceptive responses to an acute thermal stimulus (Anesthesiology Research Laboratory, Department of Anesthesiology, University of California at San Diego, La Jolla, Calif.). […] The measured nociceptive response was the latency to withdraw the hind paw when heated by light from a focused projector lamp (current set at 4.8 A). […]
as §2
To address this concern, neuropathic rats were assessed in the acute thermal model of paw withdrawal. […]

Cl.Cl.c1cncc(OC[C@@H]2CCN2)c1 [A-85380, 3-(2(S)-azetidinylmethoxy)pyridine dihydrochloride]
duration of anti-allodynia after DRG infusion ([1]; 10 μg onto the L5 DRG): 15 min | duration of anti-allodynia after DRG infusion ([1]; 20 μg onto the L5 DRG): 30 min | anti-allodynia after ipsalateral paw injection ([1]; 10, 20 and 50 μg/rat, i.d., affected paw, predominately at 15 minutes): only the 50 μg dose of A-85380 had an anti-allodynic effect | anti-allodynia after contralateral paw injection ([1]; 10, 20 and 50 μg/rat, i.d., unaffected paw, predominately at 15 minutes): all three doses of A-85380 induced a significant anti-allodynia | anti-allodynia when infused onto the L5 DRG ([1]; 10 and 20 μg onto the L5 DRG on the side of the ligation): significant anti-allodynia | potency to increase paw withdrawal threshold, DRG compared with i.p. and i.d. administration ([1]; i.d. and DRG doses converted to equivalent systemic dose, fifteen-minute time point): decidedly more potent when administered directly onto the DRG | anti-allodynia (paw withdrawal threshold), systemic administration ([1]; i.p., multiple doses, 15, 30 and 60 minutes): dose dependent anti-allodynia | behaviors induced immediately following injection ([2]; A-85380 0.5-1.0 μmol/kg, i.p.): prostration and ataxia | time point by which prostration and ataxia abated ([2]; A-85380 0.5-1.0 μmol/kg, i.p.): ≤ 15 min | analgesia (decrease in flinches), phase two of formalin test ([3]; i.p.): analgesic effects | antinociception (increase in paw withdrawal latency) ([4]; i.p.): antinociceptive action

O=C(NO)c1cncc(N2C[C@H]3CNC[C@H]32)c1 [A-420503, (IR, 5S) 5-(3,6-diazabicyclo [3.2.0]hept-6-yl)-N-hydroxy-nicotinamide]
anti-allodynia at the DRG ([1]; 4.77 μmol/kg, i.p.): significant anti-allodynia | anti-allodynia when injected i.p. ([1]; 62 μmol/kg, i.p.): significant anti-allodynia | effect of antagonist pretreatment on the compound's effects at the DRG ([1]; pretreatment with an NMR antagonist): blocked | side effects when injected i.p. ([2]; 62 μmol/kg, i.p.): without any notable side effects

C[N+](C)(C)CCCCCC[N+](C)(C)C [Hexamethonium, hexamethonium]
effect of systemically administered antagonist on A-85380 induced anti-allodynia ([1]; antagonist 19 μmol/kg, i.p. 30 minutes prior, A-85380 0.75 μmol/kg, i.p.): blocked

CNC1(C)C2CCC(C2)C1(C)C (stereo not shown) [Mecamylamine, mecamylamine hydrochloride]
effect of antagonist pretreatment on A-85380 induced anti-allodynia ([1]; antagonist 1 μmol/kg, i.p. 30 minutes prior, A-85380 0.75 μmol/kg, i.p.): completely blocked | effect of antagonist on prostration and ataxia following A-85380 injection ([2]; antagonist 1 μmol/kg, i.p. 30 minutes prior to A-85380): blocked the prostration and ataxia

C[N+](C)(C)CC[N+]1(C)Cc2c(Cl)c(Cl)c(Cl)c(Cl)c2C1 [chlorisondamine, chlorisondamine diiodide]
effect of systemically administered antagonist on A-85380 induced anti-allodynia ([1]; antagonist 0.4 μmol/kg, i.p. 30 minutes prior, A-85380 0.75 μmol/kg, i.p.): completely blocked | effect of systemic antagonist on anti-allodynia induced by A-85380 infused onto the DRG ([1]; antagonist 0.4 μmol/kg, i.p. 30 minutes prior, A-85380 20 μg onto DRG): completely blocked | effect of i.c.v. antagonist on A-85380 induced anti-allodynia ([1]; antagonist 10 μg i.c.v. 24 hours prior, A-85380 0.75 μmol/kg, i.p.): completely blocked | effect of antagonist on A-85380 induced antinociception in neuropathic rats [5]: did not alter | effect of systemically administered antagonist on A-85380-induced analgesia ([3]; antagonist 0.4 μmol/kg, i.p. 40-50 minutes prior to formalin): no significant attenuation | effect of i.c.v. antagonist on A-85380-induced analgesia ([3]; antagonist 10 μg i.c.v. 24 hours prior, i.p.): completely blocked | effect of antagonist pretreatment on the antinociceptive action of A-85380 ([4]; antagonist 0.4 μmol/kg, i.p. 30 minutes prior): no effect
